Laboratory results taken from PMC4278708, “A Convenient Method for the Synthesis of (Prop-2-Ynyloxy)Benzene Derivatives via Reaction with Propargyl Bromide, Their Optimization, Scope and Biological Evaluation” (PLoS ONE, 2014).
Converted amounts (≈) assume the structure as drawn. Like-named read-outs stand apart in the source and are kept apart here.

Experiments:
urease enzyme = urease enzyme (Canavalia ensiformis, UniProt P07374); assay: biochemical; type: biochemical; settings: for inhibition at 50 µg/mL: read-out: Percentage inhibition at 50 ug/mL; for inhibition at 100 µg/mL: read-out: Percentage inhibition at 100 ug/mL
Method: Antiurease activity of the synthesized compounds was determined by using the modified phenol-hypochlorite method. Varying concentrations were used to prepare the urease inhibition curve of Thiourea (a known inhibitor of Urease) in the reaction mixture. Phosphate buffer solution of pH 7 containing 1 unit of enzyme was added about 200 µl in the test tube which was followed by the addition of 230 µl of phosphate buffer and 20 µl of thiourea from a scrupulous stock solution for the particular concentration of thiourea in the reaction mixture respectively. Test sample solutions were added instead of thiourea solution in case of test samples. The reaction mixture were mixed and incubated at 25°C for 5 min. 400 µl of urea stock (20 mM) was added in each test tube. In order to allow the action of urease on urea, all the test tubes were incubated at 40°C.
Phenol hypochlorite reagent (1150 µl) was added after 10 min incubation at 40°C. Test tubes were again incubated at 56°C for 25 min. A blue coloured complex was formed in the reaction mixture. The samples were allowed to cool for 5 min and then their absorbance values were measured at 625 nm and the %age inhibition was calculated. Experiment was repeated three times to get the SD values.

[1] = Nitric oxide (NO) scavenging activity (sodium nitropruside / Griess reagent); settings: for IC50: NO scavenging; for Percentage scavenging activity at 50 ug/ml / Percentage scavenging activity at 100 ug/ml: NO
Method: Solutions of known concentration were prepared by dissolving the synthesized compounds in appropriate solvents. A mixture of sample solution (20 µl), 10 mM sodium nitropruside solution (200 µl) and phosphate buffer of 7.4 pH (1780 µl) was taken in a dry test tube and the mixture was incubated at 37°C for 2 hours. 200 µl Griess reagent (0.3% Sulphanilic acid in glacial acetic acid, 0.1% Naphthyl ethylene diamine HCL (NED): Mixed equal volume of both solutions just before use) was added after the incubation period is over. After 20 min keeping the solution at room temperature, its absorbance at 528 nm was measured. Each sample was analyzed in triplicate. Positive control of any known antioxidant and control of all samples were run in parallel. Use of negative control was to calibrate the instrument. Sample blanks were also prepared in case if the samples were coloured. Correction in the absorbance values was made by subtracting the sample blank reading from the sample reading.

Bacillus subtillus = assay: Antibacterial activity, disc diffusion method; type: cell-based; settings: for inhibition at 50 µg/mL / IC50 / inhibition at 100 µg/mL: Bacillus; for inhibition at 50 µg/mL: read-out: Bacillus subtillus 50 ug/ml (percentage inhibition); for inhibition at 100 µg/mL: read-out: Bacillus subtillus 100 ug/ml (percentage inhibition)
Source text: (§1) Disc diffusion method was adopted to test the antibacterial activity of synthesized compounds 2a-10 against […] different bacterial strains. Ampiciline was used as positive control to check antibacterial activity of synthesized compounds. The bacterial strains employed were: Escherichia coli, Bacillus subtillus, Shigella flexneri, Staphylococcus aureus, Pseudomonas aeroginosa and Salmonella typhi.
(§2) Disc diffusion method was used for the determination of antibacterial activity. synthetic organic compounds were examined to evaluate their antibacterial potential against four different strains of bacteria i.e. Staphlococcus aureus (Gram + ive), Pseudomonas- aeroginosa (Gram−ive) and Escherichia coli (Gram−ive), Bacillus subtilis (Gram + ive), Salmonella typhi (Gram−ive) and Shigella flexneri (−ive). The synthetic organic compounds were dissolved in an appropriate solvent to get the solution of known concentration (5 µg/µl or 10 µg/µl). In order to prepare discs of different potencies known volume of extract/synthetic organic compound solution was applied on the discs, air dried and used. After preparation of the sterilized nutrient agar and nutrient broth medium, the sterilized nutrient agar medium was poured under aseptic conditions into sterile glass petri dishes/plates. A known volume of bacterial growth culture can also be poured on the surface of agar medium solidified in petri dishes. After inoculation petri plates were kept at room temperature for 15–30 minutes so that the poured medium is adsorbed. All the discs, including test sample, +ive and –ve controls were placed onto the inoculated nutrient agar medium solidified in petri dishes with the help of sterile forceps and incubated the petri plates at 37°C±2°C for 16–24 hours. Zone of inhibition was measured in mm using ordinary scale. Experiment was repeated three times to get the SD values.

Staphylococcus aureus = assay: Antibacterial activity, disc diffusion method; type: cell-based; settings: for inhibition at 40 µg/mL / inhibition at 100 µg/mL / IC50: Staphylococcus aureus; for inhibition at 40 µg/mL: read-out: Staphylococcus aureus 40 ug/ml (percentage inhibition); for inhibition at 100 µg/mL: read-out: Staphylococcus aureus 100 ug/ml (percentage inhibition)
Source text: as §1, §2

[2] = read-out: Staphylococcus aureus IC50 ug/ml
[3] = read-out: Bacillus subtillus IC50 ug/ml

Sequence of urease enzyme (P07374 whole entry, looked up): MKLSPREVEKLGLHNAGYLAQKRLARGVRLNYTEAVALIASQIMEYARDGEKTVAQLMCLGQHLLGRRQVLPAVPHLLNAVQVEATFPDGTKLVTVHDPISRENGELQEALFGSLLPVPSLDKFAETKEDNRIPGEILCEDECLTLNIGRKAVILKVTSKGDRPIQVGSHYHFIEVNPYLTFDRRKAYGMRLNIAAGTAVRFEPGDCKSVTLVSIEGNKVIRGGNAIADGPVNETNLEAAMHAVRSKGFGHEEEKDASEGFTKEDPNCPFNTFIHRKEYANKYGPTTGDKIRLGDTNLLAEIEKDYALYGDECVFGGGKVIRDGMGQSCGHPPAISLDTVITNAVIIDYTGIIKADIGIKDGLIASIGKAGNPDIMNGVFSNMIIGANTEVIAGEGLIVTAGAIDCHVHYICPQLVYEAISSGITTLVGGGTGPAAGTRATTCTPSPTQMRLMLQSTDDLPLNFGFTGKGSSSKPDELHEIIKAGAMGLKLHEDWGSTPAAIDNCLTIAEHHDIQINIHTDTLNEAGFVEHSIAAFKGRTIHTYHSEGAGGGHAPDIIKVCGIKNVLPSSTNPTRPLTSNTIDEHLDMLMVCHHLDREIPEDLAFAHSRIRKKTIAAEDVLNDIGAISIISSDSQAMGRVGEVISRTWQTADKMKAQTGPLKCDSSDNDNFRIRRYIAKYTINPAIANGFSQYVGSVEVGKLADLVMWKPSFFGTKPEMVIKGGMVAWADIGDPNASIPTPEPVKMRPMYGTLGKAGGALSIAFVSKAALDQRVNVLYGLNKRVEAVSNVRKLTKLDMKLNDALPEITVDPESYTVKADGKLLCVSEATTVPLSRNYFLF

Molecule | IC50 [1] | Percentage scavenging activity at 50 ug/ml [1] | Percentage scavenging activity at 100 ug/ml [1] | inhibition at 50 µg/mL (Bacillus subtillus; 50 ug/ml) | inhibition at 40 µg/mL (Staphylococcus aureus) | inhibition at 100 µg/mL (Staphylococcus aureus) | IC50 (urease enzyme) | inhibition at 50 µg/mL (urease enzyme) | inhibition at 100 µg/mL (urease enzyme) | activity against Bacillus subtillus (in words) (Bacillus subtillus) | IC50 (Staphylococcus aureus; [2]) | also measured
2-bromo-4-methyl-N-(prop-2-ynyl)aniline [Compound 8b] | 87.5 µg/mL | 26.33±0.11% | 57.98±0.21% | – | – | – | – | – | – | – | – | IC50 (urease enzyme; urease): 98.2 µg/mL; Percentage inhibition at 50 ug/mL (urease enzyme; urease): 27±0.45%; Percentage inhibition at 100 ug/mL (urease enzyme; urease): 50.83±0.265%; Bacillus subtillus 100 ug/ml (percentage inhibition) (Bacillus subtillus; 100 ug/ml): 43.8±0.35%; Staphylococcus aureus 40 ug/ml (percentage inhibition) (Staphylococcus aureus): 13.39±0.5%; Staphylococcus aureus 100 ug/ml (percentage inhibition) (Staphylococcus aureus): 36±0.8%
CC1(C)S[C@@H]2[C@H](NC(=O)[C@H](N)c3ccccc3)C(=O)N2[C@H]1C(=O)O [Ampicilline, reference compound] | – | – | – | 9.9 ± 0.51% | 29.9 ± 0.59% | 73 ± 0.51% | – | – | – | – | – | IC50 (Bacillus subtillus; read-out: Bacillus subtillus IC50): 81 µg/mL (≈ 232 µM); IC50 (Staphylococcus aureus; read-out: Staphylococcus aureus IC50): 76 µg/mL (≈ 218 µM)
C#CCOc1ccc(Cl)cc1Br [Compound 2b, 2-bromo-4-chloro-1-(prop-2-ynyloxy)benzene] | 67.9 µg/mL (≈ 277 µM) | 39.67±0.09% | 68.44±0.16% | 40.37 ± 0.35% | 31.47 ± 0.19% | 56 ± 0.07% | 264 µM | 31.5 ± 0.22% | 81.07 ± 0.1% | inactive | 87.7 µg/mL (≈ 357 µM) | inhibition at 100 µg/mL (Bacillus subtillus; 100 ug/ml): 39.3 ± 0.36%
C#CCOc1ccc(C)cc1Br [Compound 2d, 2-bromo-4-methyl-1-(prop-2-ynyloxy)benzene] | 74.1 µg/mL (≈ 329 µM) | 31.33±0.10% | 69.95±0.15% | 41.5 ± 0.3% | 27.7 ± 0.35% | 52 ± 0.607% | 298 µM | 30.3 ± 0.6% | 85.89 ± 0.07% | potent antibacterial | 95.9 µg/mL (≈ 426 µM) | IC50 (Bacillus subtillus; [3]): 79.9 µg/mL (≈ 355 µM)
C#CCOc1ccc(F)cc1Br [Compound 2e, 2-bromo-4-fluoro-1-(prop-2-ynyloxy)benzene] | 68.8 µg/mL (≈ 300 µM) | 33.33±0.1% | 77.5±0.11% | – | 31.99 ± 0.07% | 58 ± 0.9% | 271 µM | 40 ± 0.5% | 79.59 ± 0.11% | inactive | 85.1 µg/mL (≈ 372 µM) | –
C#CCOc1ccc(C(C)(C)c2ccc(OCC#C)cc2)cc1 [Compound 4a, 4,4′-(propane-2,2-diyl)bis((prop-2-ynyloxy)benzene)] | 64.4 µg/mL (≈ 212 µM) | 40±0.09% | 74.53±0.13% | – | 29.1 ± 0.6% | 50 ± 0.2% | 205 µM | 37 ± 0.34% | 89.42 ± 0.05% | inactive | 97.7 µg/mL (≈ 321 µM) | inhibition at 100 µg/mL (Bacillus subtillus; 100 ug/ml): 33.9 ± 0.45%; activity against Staphylococcus aureus (in words) (Staphylococcus aureus): moderate activity
C#CCOc1cccc2ccccc12 [Compound 6a, 1-(prop-2-ynyloxy)naphthalene] | 83 µg/mL (≈ 455 µM) | 24.33±0.12% | 63.17±0.19% | – | -1.85% | 10 ± 0.9% | 373 µM | 41.33 ± 0.41% | 65.3 ± 0.18% | – | – | IC50 (Bacillus subtillus; [3]): 92.6 µg/mL (≈ 508 µM); activity against Staphylococcus aureus (in words) (Staphylococcus aureus): inactive
C#CCOc1ccc2ccccc2c1 [Compound 6b, 2-(prop-2-ynyloxy)naphthalene] | 76.16 µg/mL (≈ 418 µM) | 33.33±0.1% | 65.19±0.18% | 39.06 ± 0.05% | 21.4 ± 0.4% | 51 ± 0.3% | – | 32 ± 0.38% | 41.9 ± 0.313% | – | 98.3 µg/mL (≈ 539 µM) | urease inhibition activity (in words) (urease enzyme; 50 and 100 µg/ml tested): did not show any satisfactory results; inhibition at 100 µg/mL (Bacillus subtillus; 100 ug/ml): 57.8 ± 0.26%; IC50 (Bacillus subtillus; [3]): 79.2 µg/mL (≈ 435 µM)
C#CCNc1cccc2ccccc12 [Compound 8d, N-(prop-2-ynyl)naphthalen-1-amine] | – | 7.67±0.13% | 38.38±0.32% | – | 5.85 ± 0.8% | 31 ± 0.2% | 506 µM | 43 ± 0.42% | 51.5 ± 0.26% | – | – | nitric oxide scavenging activity (in words) [1]: did not show any significant results
NC(N)=S [Thiourea, reference compound] | – | – | – | – | – | – | – | – | – | – | – | IC50 (urease enzyme; urease): 23.3 µg/mL; Percentage inhibition at 20 ug/ml (urease enzyme; urease, 20 ug/ml (positive control)): 47.1±0.31%; Percentage inhibition at 40 ug/ml (urease enzyme; urease, 40 ug/ml (positive control)): 65±0.01%
O=C1O[C@H]([C@@H](O)CO)C(O)=C1O [Vit.C control, Ascorbic acid, reference compound] | 50.43 µg/mL (≈ 286 µM) | 38.5±0.16% | 84.1±0.12% | – | – | – | – | – | – | – | – | –
N-(prop-2-ynyl)-4-(prop-2-ynyloxy)aniline [Compound 10] | 78.1 µg/mL | 30±0.10% | 65.5±0.18% | – | – | – | – | – | – | batter activity | – | IC50 (urease enzyme; urease): 89.6 µg/mL; Percentage inhibition at 50 ug/mL (urease enzyme; urease): 25±0.45%; Percentage inhibition at 100 ug/mL (urease enzyme; urease): 56.5±0.234%; Bacillus subtillus IC50 (Bacillus subtillus): 98.5 µg/mL; Bacillus subtillus 50 ug/ml (percentage inhibition) (Bacillus subtillus; 50 ug/ml): 6.13±0.35%; Staphylococcus aureus IC50 (Staphylococcus aureus): 96.3 µg/mL; activity against Staphylococcus aureus (in words) (Staphylococcus aureus): moderate activity; Staphylococcus aureus 40 ug/ml (percentage inhibition) (Staphylococcus aureus): 24.4±0.11%; Staphylococcus aureus 100 ug/ml (percentage inhibition) (Staphylococcus aureus): 52±0.1%
